According to patent publication US11208400B2, “Substituted 6-(1H-pyrazol-1-yl)pyrimidin-4-amine derivatives and uses thereof” (Bayer Aktiengesellschaft, priority 2016, dated 2021):

The compounds below were run against T1, human Npt2a (Homo sapiens, UniProt Q06495) (assay: Npt2a activity cell based assay, membrane potential dye, CHO T-REx hNpt2a cells). Conditions: doxycycline-induced, depolarization by sodium phosphate influx, average or median values if tested more than once.
T1 construct: expressed in transfected cells
T1 sequence (Q06495 1-639): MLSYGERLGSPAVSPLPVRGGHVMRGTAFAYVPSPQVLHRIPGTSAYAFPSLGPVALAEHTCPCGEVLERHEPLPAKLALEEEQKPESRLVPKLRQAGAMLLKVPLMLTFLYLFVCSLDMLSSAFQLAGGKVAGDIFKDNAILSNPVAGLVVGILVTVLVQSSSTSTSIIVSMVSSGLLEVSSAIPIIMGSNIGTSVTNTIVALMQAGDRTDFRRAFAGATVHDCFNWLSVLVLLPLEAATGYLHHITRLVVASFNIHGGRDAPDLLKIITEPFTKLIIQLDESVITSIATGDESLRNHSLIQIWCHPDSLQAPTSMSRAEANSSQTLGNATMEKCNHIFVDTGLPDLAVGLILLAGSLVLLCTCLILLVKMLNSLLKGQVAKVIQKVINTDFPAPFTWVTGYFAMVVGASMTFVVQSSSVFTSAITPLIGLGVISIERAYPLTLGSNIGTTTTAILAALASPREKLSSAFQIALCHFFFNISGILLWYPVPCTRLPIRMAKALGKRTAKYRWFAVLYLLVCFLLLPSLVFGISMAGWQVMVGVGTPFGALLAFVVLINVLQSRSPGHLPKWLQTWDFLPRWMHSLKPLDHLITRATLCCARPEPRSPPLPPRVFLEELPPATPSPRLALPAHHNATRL
How it was run: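 Doxycycline-induced (0.5 μg/mL, 24 h) CHO T-REx cells were loaded with membrane potential dye in sodium-free NHE buffer (pH 7.4) and exposed to compound (50 μM–1 nM, 5 min, room temperature).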

SMILES	IC50 [nM]
Cc1nn(-c2cc(Nc3c(Cl)c(-c4ccc(F)cc4)nn3CC3CC3)ncn2)c(C(F)F)c1Cl [Example 186, N-[4-chloro-1-(cyclopropylmethyl)-3-(4-fluorophenyl)-1H-pyrazol-5-yl]-6-[4-chloro-5-(difluoromethyl)-3-methyl-1H-pyrazol-1-yl]pyrimidin-4-amine]	60
Cc1cc(C(F)F)n(-c2cc(Nc3c(C)c(-c4ccc(OC(F)(F)F)cc4)nn3CC3CC3)ncn2)n1 [Example 309, N-{1-(cyclopropylmethyl)-4-methyl-3-[4-(trifluoromethoxy)phenyl]-1H-pyrazol-5-yl}-6-[5-(difluoromethyl)-3-methyl-1H-pyrazol-1-yl]pyrimidin-4-amine]	44
COc1c(C)nn(-c2cc(Nc3c(C)c(-c4ccc(C#N)cc4)nn3CC3CC3)ncn2)c1C [Example 464, 4-[1-(cyclopropylmethyl)-5-{[6-(4-methoxy-3,5-dimethyl-1H-pyrazol-1-yl)pyrimidin-4-yl]amino}-4-methyl-1H-pyrazol-3-yl]benzonitrile]	2
CCOC(=O)c1c(C)nn(-c2cc(Nc3nn(C)c(-c4ccc(F)cc4)c3CC)ncn2)c1C [Example 40, ethyl 1-(6-{[4-ethyl-5-(4-fluorophenyl)-1-methyl-1H-pyrazol-3-yl]amino}pyrimidin-4-yl)-3,5-dimethyl-1H-pyrazole-4-carboxylate]	2760
CCOC(=O)Cc1c(C)nn(-c2cc(Nc3c(C)nn(-c4ccc(C#N)cc4)c3C)ncn2)c1C [Example 257, ethyl [1-(6-{[1-(4-cyanophenyl)-3,5-dimethyl-1H-pyrazol-4-yl]amino}pyrimidin-4-yl)-3,5-dimethyl-1H-pyrazol-4-yl]acetate]	74
Cc1nn(-c2cc(Nc3c(C)c(-c4ccc(F)cc4)nn3CC3CC3)ncn2)c(C)c1C(O)C1CC1 (single isomer, unassigned) [Example 419, cyclopropyl[1-(6-{[1-(cyclopropylmethyl)-3-(4-fluorophenyl)-4-methyl-1H-pyrazol-5-yl]amino}pyrimidin-4-yl)-3,5-dimethyl-1H-pyrazol-4-yl]methanol]	14
COc1c(C)nn(-c2cc(Nc3nn(C)c(-c4ccc(F)cn4)c3C)ncn2)c1C [Example 461, N-[5-(5-fluoropyridin-2-yl)-1,4-dimethyl-1H-pyrazol-3-yl]-6-(4-methoxy-3,5-dimethyl-1H-pyrazol-1-yl)pyrimidin-4-amine]	170
COC(C)c1c(C)nn(-c2cc(Nc3nn(C)c(-c4ccc(F)cc4)c3C)ncn2)c1C (racemic) [Example 343, (±)-N-[5-(4-fluorophenyl)-1,4-dimethyl-1H-pyrazol-3-yl]-6-{4-[1-methoxyethyl]-3,5-dimethyl-1H-pyrazol-1-yl}pyrimidin-4-amine]	6
CCc1c(Nc2cc(-n3nc(C)c4c3CCCC4=O)ncn2)nn(C)c1-c1ccc(F)cc1 [Example 133, 1-(6-{[4-ethyl-5-(4-fluorophenyl)-1-methyl-1H-pyrazol-3-yl]amino}pyrimidin-4-yl)-3-methyl-1,5,6,7-tetrahydro-4H-indazol-4-one]	57
Cc1nn(-c2cc(Nc3c(C)c(-c4ccc(F)cc4)nn3CC3CC3)ncn2)c(C)c1C1(C(F)(F)F)OCCO1 [Example 517, N-[1-(cyclopropylmethyl)-3-(4-fluorophenyl)-4-methyl-1H-pyrazol-5-yl]-6-{3,5-dimethyl-4-[2-(trifluoromethyl)-1,3-dioxolan-2-yl]-1H-pyrazol-1-yl}pyrimidin-4-amine]	29
Cc1nn(-c2cc(Nc3c(C)c(-c4ccc(C#N)cc4)nn3CC3CC3)ncn2)c2c1C(=O)CC2 [Example 365, 4-[1-(cyclopropylmethyl)-4-methyl-5-{[6-(3-methyl-4-oxo-5,6-dihydrocyclopenta[c]pyrazol-1(4H)-yl)pyrimidin-4-yl]amino}-1H-pyrazol-3-yl]benzonitrile]	61
Cc1cc(C)n(-c2cc(Nc3c(Cl)c(-c4ccc(F)cc4)nn3CC3CC3)ncn2)n1 [Example 187, N-[4-chloro-1-(cyclopropylmethyl)-3-(4-fluorophenyl)-1H-pyrazol-5-yl]-6-(3,5-dimethyl-1H-pyrazol-1-yl)pyrimidin-4-amine]	10
Cc1cc(C)n(-c2cc(Nc3nn(C)c(-c4ccc(F)cc4)c3C#N)ncn2)n1 [Example 23, 3-{[6-(3,5-dimethyl-1H-pyrazol-1-yl)pyrimidin-4-yl]amino}-5-(4-fluorophenyl)-1-methyl-1H-pyrazole-4-carbonitrile]	315
Cc1nn(-c2cc(Nc3c(C)c(-c4ccc(F)cc4)nn3CC3CC3)ncn2)c(C)c1[N+](=O)[O-] [Example 466, N-[1-(cyclopropylmethyl)-3-(4-fluorophenyl)-4-methyl-1H-pyrazol-5-yl]-6-(3,5-dimethyl-4-nitro-1H-pyrazol-1-yl)pyrimidin-4-amine]	11
CCc1c(-c2ccc(F)cc2)nn(CC(F)F)c1Nc1cc(-n2nc(C)c(Cl)c2C(F)F)ncn1 [Example 179, 6-[4-chloro-5-(difluoromethyl)-3-methyl-1H-pyrazol-1-yl]-N-[1-(2,2-difluoroethyl)-4-ethyl-3-(4-fluorophenyl)-1H-pyrazol-5-yl]pyrimidin-4-amine]	170
CCc1c(Nc2cc(-n3nc(C)c(C(=O)N4CC(F)(C(F)(F)F)C4)c3C)ncn2)nn(C)c1-c1ccc(F)cc1 [Example 85, [1-(6-{[4-ethyl-5-(4-fluorophenyl)-1-methyl-1H-pyrazol-3-yl]amino}pyrimidin-4-yl)-3,5-dimethyl-1H-pyrazol-4-yl][3-fluoro-3-(trifluoromethyl)azetidin-1-yl]methanone]	130
CCc1c(Nc2cc(-n3nc(C)c(C)c3O)ncn2)nn(C)c1-c1ccc(F)cc1 [Example 25, 1-(6-{[4-ethyl-5-(4-fluorophenyl)-1-methyl-1H-pyrazol-3-yl]amino}pyrimidin-4-yl)-3,4-dimethyl-1H-pyrazol-5-ol]	1070
Cc1cc(C(F)F)n(-c2cc(Nc3nn(C)c(-c4ccc(F)cc4)c3C)ncn2)n1 [Example 69, 6-[5-(difluoromethyl)-3-methyl-1H-pyrazol-1-yl]-N-[5-(4-fluorophenyl)-1,4-dimethyl-1H-pyrazol-3-yl]pyrimidin-4-amine]	8.4
CCc1c(Nc2cc(-n3nc(CO)cc3C)ncn2)nn(C)c1-c1ccc(F)cc1 [Example 94, [1-(6-{[4-ethyl-5-(4-fluorophenyl)-1-methyl-1H-pyrazol-3-yl]amino}pyrimidin-4-yl)-5-methyl-1H-pyrazol-3-yl]methanol]	2500
COCCc1c(Nc2cc(-n3nc(C)cc3C)ncn2)n[nH]c1-c1ccc(F)cc1 [Example 38, 6-(3,5-dimethyl-1H-pyrazol-1-yl)-N-[5-(4-fluorophenyl)-4-(2-methoxyethyl)-1H-pyrazol-3-yl]pyrimidin-4-amine]	2350
COc1c(C)nn(-c2cc(Nc3c(C)c(C45C6C7C4C4C5C6C74C#N)nn3CC3CC3)ncn2)c1C (stereo not shown) [Example 514, 4-[1-(cyclopropylmethyl)-5-{[6-(4-methoxy-3,5-dimethyl-1H-pyrazol-1-yl)pyrimidin-4-yl]amino}-4-methyl-1H-pyrazol-3-yl]cubane-1-carbonitrile]	9
Cc1nn(-c2cc(Nc3nn(C)c(-c4ccc(F)cc4)c3C3CC3)ncn2)c2ccccc12 [Example 44, N-[4-cyclopropyl-5-(4-fluorophenyl)-1-methyl-1H-pyrazol-3-yl]-6-(3-methyl-1H-indazol-1-yl)pyrimidin-4-amine]	5.35
